Results from article PMC9178010, “Identification and characterization of a prokaryotic 6-4 photolyase from Synechococcus elongatus with a deazariboflavin antenna chromophore” (Nucleic Acids Research, 2022).

What was measured:
Type in all cases: binding
[1] = target: T1, SePhrB (SePhrB[Ec]; SePhrB[ScFbiC]; SePhrB[8-HDF]) (Synechococcus elongatus, UniProt Q31P18); experiment: co-purified cofactor; absorption, fluorescence and TLC of denatured protein
T1 construct: gene Synpcc7942_1171; full-length gene in pET22b, E. coli BL21(DE3), Ni-NTA and Superdex 200; iron-sulfur cluster protein; expressed alone or with S. coelicolor FbiC
T1 sequence (Q31P18 1-503): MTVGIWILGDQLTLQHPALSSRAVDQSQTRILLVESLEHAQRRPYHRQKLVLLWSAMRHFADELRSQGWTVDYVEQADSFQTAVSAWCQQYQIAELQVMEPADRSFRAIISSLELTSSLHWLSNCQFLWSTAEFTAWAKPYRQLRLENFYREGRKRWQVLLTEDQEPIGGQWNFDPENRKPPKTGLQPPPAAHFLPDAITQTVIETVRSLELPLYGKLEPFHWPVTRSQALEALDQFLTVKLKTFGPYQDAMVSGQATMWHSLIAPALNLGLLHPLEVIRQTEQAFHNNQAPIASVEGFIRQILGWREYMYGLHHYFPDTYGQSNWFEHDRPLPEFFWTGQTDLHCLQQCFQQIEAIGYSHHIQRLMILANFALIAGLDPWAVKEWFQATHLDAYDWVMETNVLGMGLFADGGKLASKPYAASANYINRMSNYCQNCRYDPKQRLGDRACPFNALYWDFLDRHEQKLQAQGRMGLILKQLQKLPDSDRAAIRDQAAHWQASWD

SePhrA (SePhrA[ScFbiC]) [2] = target: T2, SePhrA (SePhrA[ScFbiC]) (Synechococcus elongatus, UniProt Q31S25); experiment: as above; conditions: antenna chromophore; co-expressed with S. coelicolor FO synthase FbiC
T2 construct: gene Synpcc7942_0112; full-length gene in pET22b, E. coli BL21(DE3), co-expressed with S. coelicolor FbiC; Ni-NTA and Superdex 200
T2 sequence (Q31S25 1-484): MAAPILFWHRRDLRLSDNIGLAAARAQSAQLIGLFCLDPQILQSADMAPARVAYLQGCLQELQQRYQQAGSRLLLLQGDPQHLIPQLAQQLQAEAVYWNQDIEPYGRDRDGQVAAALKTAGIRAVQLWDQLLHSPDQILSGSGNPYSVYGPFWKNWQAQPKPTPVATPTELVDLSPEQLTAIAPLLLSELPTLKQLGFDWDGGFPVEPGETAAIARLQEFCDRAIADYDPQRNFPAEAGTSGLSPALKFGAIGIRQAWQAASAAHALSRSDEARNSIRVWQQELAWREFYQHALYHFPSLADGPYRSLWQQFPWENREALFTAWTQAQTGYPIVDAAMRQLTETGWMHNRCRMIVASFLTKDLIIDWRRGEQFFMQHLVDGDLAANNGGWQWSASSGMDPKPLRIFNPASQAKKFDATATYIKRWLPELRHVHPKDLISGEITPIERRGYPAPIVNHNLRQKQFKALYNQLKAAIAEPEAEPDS

AfPhrB = target: T3, AfPhrB (Agrobacterium fabrum, UniProt A9CH39); experiment: as above; conditions: co-purified from E. coli
T3 construct: gene phrB; synthetic phrB gene in pET22b, E. coli BL21(DE3), Ni-NTA and Superdex 200
T3 sequence (A9CH39 whole entry): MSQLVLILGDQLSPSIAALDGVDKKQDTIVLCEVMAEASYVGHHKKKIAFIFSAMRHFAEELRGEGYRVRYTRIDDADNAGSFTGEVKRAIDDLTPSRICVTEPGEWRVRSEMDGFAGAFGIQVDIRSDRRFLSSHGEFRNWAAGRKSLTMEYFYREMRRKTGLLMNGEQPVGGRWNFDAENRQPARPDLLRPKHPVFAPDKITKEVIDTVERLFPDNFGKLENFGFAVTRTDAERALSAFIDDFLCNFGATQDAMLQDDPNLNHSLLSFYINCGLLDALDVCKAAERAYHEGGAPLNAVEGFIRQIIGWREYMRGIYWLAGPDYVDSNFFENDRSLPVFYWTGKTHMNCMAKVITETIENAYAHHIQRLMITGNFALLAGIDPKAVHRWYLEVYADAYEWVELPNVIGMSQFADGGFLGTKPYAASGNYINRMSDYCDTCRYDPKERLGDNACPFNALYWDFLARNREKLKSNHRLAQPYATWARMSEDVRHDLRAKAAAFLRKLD

SePhrA (SePhrA[ScFbiC]) [3] = target: T2, SePhrA (SePhrA[ScFbiC]); experiment: TLC of denatured protein supernatant; conditions: catalytic cofactor; co-expressed with S. coelicolor FO synthase FbiC

In the case of `O=c1nc2n(C[C@H](O)[C@H](O)[C@H](O)CO)c3cc(O)ccc3cc-2c(=O)[nH]1` [8-HDF, 7,8-didemethyl-8-hydroxy-5-deazariboflavin], the “co-purified cofactor; absorption, fluorescence and TLC of denatured protein” value (from here on “co-purified cofactor; absorption”) ([1]; antenna chromophore, co-expressed with S. coelicolor FO synthase FbiC) is reported as “SePhrB associates with FAD and 8-HDF when co-expressed with the ScFbiC” and the “co-purified cofactor; absorption” value (SePhrA (SePhrA[ScFbiC]) [2]) is reported as “an additional bright blue band that was attributed to 8-HDF”.

`Cc1nc2c(=O)[nH]c(=O)nc-2n(C[C@H](O)[C@H](O)[C@H](O)CO)c1C` [DMRL, 6,7-dimethyl-8-ribityllumazine] was tested, and the “co-purified cofactor; absorption” value (AfPhrB; antenna chromophore) was “a yellow fluorescent band of FAD, and a blue-green fluorescent band of DMRL”.

With `Cc1cc2nc3c(=O)[nH]c(=O)nc-3n(C[C@H](O)[C@H](O)[C@H](O)COP(=O)(O)OP(=O)(O)OC[C@H]3O[C@@H](n4cnc5c(N)ncnc54)[C@H](O)[C@@H]3O)c2cc1C` [FAD] the “co-purified cofactor; absorption” value ([1]; catalytic cofactor, expressed in E. coli without FbiC, fully oxidized as purified) was “SePhrB[Ec] gave only one yellow fluorescent band with the same Rf value of authentic FAD”, the “co-purified cofactor; absorption” value (AfPhrB; catalytic cofactor) was “the supernatant of AfphrB produced a yellow fluorescent band of FAD” and the “TLC of denatured protein supernatant” value (SePhrA (SePhrA[ScFbiC]) [3]) was “each of them had a yellow FAD band”.
